Measurements: patent US6861528B2, “Carboxylated heterocyclic compounds and methods of synthesis” (R.T. Alamo Ventures I, LLC, priority 2002, dated 2005)

Tested on: Protein Serine/Threonine Kinase PKC, non-selective
Test: Protein Serine/Threonine Kinase PKC, non-selective enzyme assay ([32P]histone quantitated)
Assay type: biochemical
Details: 1% DMSO vehicle, rat brain enzyme, histone substrate
Description: In this example, carboxyflosequinan was subjected to biochemical enzyme assays and radioligand binding assays to determine its percent inhibition of a variety of enzyme activities. Tamaoki and Nakano “Potent and specific inhibitors of protein kinase C of microbial origin” Biotechnology 8:732 (1990); Wilkinson et al. “Isoenzyme specificity of bisindolymaleimides, selective inhibitors of protein kinase C” Biochem. J. 294:335 (1993); Tamaki et al. “Staurosporine, a potent inhibitor of phospholipid/Ca++ dependent protein kinase” Biochem. Biophys. Res. Comm, 135:397 (1986). A brief summary of the conditions for each assay is provided below:
Protein Serine/Threonine Kinase PKC, non-selective: The enzyme was obtained from rat brain and the substrate was 370 μg/ml histone. The reaction was pre-incubated 5 min at 25° C., followed by a 15 min incubation at 25° C. in a buffer of 20 mM Tris-HCl, […] and 0.1 mM CaCl2.2HO, pH 7.4. [^32P]histone was quantitated.
FIG. 3 projects data for carboxyflosequinan in the assays described above. In these protein kinase assays, carboxyflosequinan was used in varying concentrations (in 1% DMSO as the vehicle). For the protein serine/threonine kinase (PKC, non-selective), carboxyflosequinan was tested at a concentrations of 100 μM, 300 μM, and 1000 μM. […] (See, FIG. 3).

Measured: inhibition of protein serine/threonine kinase (PKC, non-selective)

Cn1cc([S+]([O-])CC(=O)O)c(=O)c2ccc(F)cc21 (stereo not drawn) [carboxyflosequinan, 3-carboxymethylsulfinyl-7-fluoro-1-methyl-4-quinolone]
greater than 50%: 100 μM carboxyflosequinan | 300 μM carboxyflosequinan | 1000 μM carboxyflosequinan
